According to ChEMBL document CHEMBL1201862, “PubChem BioAssay data set” (2004):
Activity calls are given as the source filed them.

How the values were obtained:
[1] = target: T1, Delta-type opioid receptor (Homo sapiens, UniProt P41143); test: DOR agonists, SAR follow-up, image-based (AID 2370); type: functional
[2] = target: T2, Kappa-type opioid receptor (Homo sapiens, UniProt P41145); test: kappa opioid receptor blockers, image-based, SAR follow-up (AID 2348); type: functional
[3] = target: T2, Kappa-type opioid receptor; test: kappa opioid receptor activation potency – imaging, image-based, SAR follow-up (AID 2359); type: functional
[4] = target: T2, Kappa-type opioid receptor; test: kappa opioid receptor blockers, cell-based, luminescence, beta-arrestin, SAR follow-up (AID 2285); type: functional
[5] = target: T1, Delta-type opioid receptor; test: delta opioid receptor blockers – image-based, SAR follow-up (AID 2357); type: functional
Mu-type opioid receptor [6] = target: T3, Mu-type opioid receptor (Homo sapiens, UniProt P35372); test: mu opioid receptor blockers – image-based, SAR follow-up (AID 2420); type: functional;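 further: compounds added before stimulation of receptor with agonist DAMGO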
T3 sequence (P35372 whole entry): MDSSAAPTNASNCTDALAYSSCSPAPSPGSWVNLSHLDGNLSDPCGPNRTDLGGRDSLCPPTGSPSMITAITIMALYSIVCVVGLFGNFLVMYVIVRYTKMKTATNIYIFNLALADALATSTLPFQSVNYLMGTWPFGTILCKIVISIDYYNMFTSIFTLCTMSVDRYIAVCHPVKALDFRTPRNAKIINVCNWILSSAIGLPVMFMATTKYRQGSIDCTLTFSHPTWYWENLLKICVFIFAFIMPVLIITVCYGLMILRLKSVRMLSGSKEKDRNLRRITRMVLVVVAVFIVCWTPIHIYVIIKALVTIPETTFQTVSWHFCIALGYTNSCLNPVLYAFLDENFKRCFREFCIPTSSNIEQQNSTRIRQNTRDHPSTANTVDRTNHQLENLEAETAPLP

Mu-type opioid receptor [7] = target: T3, Mu-type opioid receptor; test: mu opioid receptor activators, image-based, SAR follow-up (AID 2352); type: functional
[8] = target: T4, E3 ubiquitin-protein ligase XIAP (Homo sapiens, UniProt P98170); test: small molecules displacing peptide from XIAP – biochemical, IAP family, fluorescence polarization (AID 1018); type: functional
T4 sequence (P98170 whole entry): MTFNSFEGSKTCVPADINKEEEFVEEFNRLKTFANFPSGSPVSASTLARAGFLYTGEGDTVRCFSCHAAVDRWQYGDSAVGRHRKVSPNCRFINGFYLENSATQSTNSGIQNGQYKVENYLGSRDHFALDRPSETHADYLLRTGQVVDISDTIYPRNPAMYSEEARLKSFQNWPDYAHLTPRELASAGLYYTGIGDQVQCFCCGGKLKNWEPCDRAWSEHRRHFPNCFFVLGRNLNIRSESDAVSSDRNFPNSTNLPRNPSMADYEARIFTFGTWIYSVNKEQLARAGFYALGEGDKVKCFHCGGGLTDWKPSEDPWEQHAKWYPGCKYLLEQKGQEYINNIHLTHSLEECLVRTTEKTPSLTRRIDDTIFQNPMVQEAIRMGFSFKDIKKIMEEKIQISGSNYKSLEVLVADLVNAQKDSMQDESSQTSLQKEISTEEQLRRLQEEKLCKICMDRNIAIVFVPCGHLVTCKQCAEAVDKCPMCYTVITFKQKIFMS

[9] = target: T4, E3 ubiquitin-protein ligase XIAP; test: Counter Screen using XIAP-Bir3 for Chemical Antagonists of Bir1/2 domains of IAP-family anti-apoptotic proteins. [Related pubchem assays (depositor defined):AID1018, AID1449, AID1514, AID1638, AID1749, AID1750, AID488957, AID488963]
Keap1/Nrf2 = Keap1/Nrf2 (Homo sapiens, UniProt Q14145); test: disruptors of Keap1 binding to Nrf2 peptide – biochemical, fluorescence polarization, cherry-picked samples, dose response (AID 588683)
Chain of Keap1/Nrf2 (Q16236 whole entry): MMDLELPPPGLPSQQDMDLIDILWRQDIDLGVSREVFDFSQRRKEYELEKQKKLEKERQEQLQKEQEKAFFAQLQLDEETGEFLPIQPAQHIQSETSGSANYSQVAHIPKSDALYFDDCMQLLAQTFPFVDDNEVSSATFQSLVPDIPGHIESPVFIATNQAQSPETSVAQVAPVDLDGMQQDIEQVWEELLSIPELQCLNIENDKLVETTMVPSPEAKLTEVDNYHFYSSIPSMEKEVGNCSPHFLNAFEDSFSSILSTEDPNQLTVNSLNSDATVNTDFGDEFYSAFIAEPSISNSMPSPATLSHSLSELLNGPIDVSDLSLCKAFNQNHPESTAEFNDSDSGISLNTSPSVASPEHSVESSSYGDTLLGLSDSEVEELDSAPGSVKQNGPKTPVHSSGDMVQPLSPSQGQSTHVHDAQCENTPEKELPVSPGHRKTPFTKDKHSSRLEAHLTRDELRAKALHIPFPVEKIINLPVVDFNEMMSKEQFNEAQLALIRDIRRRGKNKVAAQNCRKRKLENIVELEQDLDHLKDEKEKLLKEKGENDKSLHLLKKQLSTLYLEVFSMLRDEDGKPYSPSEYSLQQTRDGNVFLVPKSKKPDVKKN
Chain of Keap1/Nrf2 (Q14145 whole entry): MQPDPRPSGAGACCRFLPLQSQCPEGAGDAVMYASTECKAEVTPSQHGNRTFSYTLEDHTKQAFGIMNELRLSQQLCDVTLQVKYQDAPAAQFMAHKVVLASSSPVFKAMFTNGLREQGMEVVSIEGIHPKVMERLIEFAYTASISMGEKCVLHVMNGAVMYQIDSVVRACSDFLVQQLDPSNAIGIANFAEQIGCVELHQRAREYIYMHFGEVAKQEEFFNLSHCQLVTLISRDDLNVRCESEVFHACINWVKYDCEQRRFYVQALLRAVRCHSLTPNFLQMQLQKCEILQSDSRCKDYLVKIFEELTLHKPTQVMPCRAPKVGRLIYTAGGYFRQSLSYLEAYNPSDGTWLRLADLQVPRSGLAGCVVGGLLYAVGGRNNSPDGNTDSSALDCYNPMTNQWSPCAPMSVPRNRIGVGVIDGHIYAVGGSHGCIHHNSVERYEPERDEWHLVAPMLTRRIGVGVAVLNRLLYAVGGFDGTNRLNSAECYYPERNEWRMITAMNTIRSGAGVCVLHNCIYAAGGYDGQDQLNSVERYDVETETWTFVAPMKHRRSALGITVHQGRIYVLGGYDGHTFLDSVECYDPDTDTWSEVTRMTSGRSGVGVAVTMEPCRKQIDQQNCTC

[10] = Trypanosoma cruzi growth suppression in host cells – NIH3T3 host cells, beta-gal luminescence, confirmation (AID 2044); type: functional, cell-based;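 further: intracellular parasites grown in NIH/3T3 mouse fibroblasts as host cells; luminescent beta-galactosidase reporter signal from transgenic T. cruzi replicating inside host cells; inhibitors lower the luminescence signal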
[11] = HepG2 cell cytotoxicity, dose response, cytotoxicity control for non-replicating M. tuberculosis project (AID 489018); type: functional; details: Mycobacterium tuberculosis
cells = type: functional
[12] = Vero E6 cell cytotoxicity, dose response, cytotoxicity control for non-replicating M. tuberculosis project, secondary assay (AID 492998); type: functional, VeroE6; details: Vero C1008
[13] = NIH3T3 cell viability loss – ATP luminescence, mouse fibroblasts, counter-screen, dose response (AID 2010); type: functional, cell-based;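 further: cells exposed to compound for about 90 hours before reading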
Escherichia coli = test: microbe, parasite or virus in culture
INS1 = test: INS-1E survival protection against cytokine death – cell-based, luminescence, retest, dose response (AID 449756); type: functional; details: Rattus norvegicus;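 further: cell death triggered by IL-1 beta plus TNF-alpha plus IFN-gamma mixture; protective hits raise ATP signal compared with cytokine alone wells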
[14] = THP-1 cell cytotoxicity, dose response, cytotoxicity control for non-replicating M. tuberculosis project (AID 489025); type: functional
[15] = target: T5, Microphthalmia-associated transcription factor (Homo sapiens, UniProt O75030); test: reducers of TRPM1 reporter luminescence, concentration series – cell-based, SK-MEL-5, cherry-picked, set 3, MITF inhibitor project, dose response (AID 493073); type: functional;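 further: SK-MEL-5 melanoma cells with luciferase driven by the MITF target TRPM1 promoter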
T5 sequence (O75030 whole entry): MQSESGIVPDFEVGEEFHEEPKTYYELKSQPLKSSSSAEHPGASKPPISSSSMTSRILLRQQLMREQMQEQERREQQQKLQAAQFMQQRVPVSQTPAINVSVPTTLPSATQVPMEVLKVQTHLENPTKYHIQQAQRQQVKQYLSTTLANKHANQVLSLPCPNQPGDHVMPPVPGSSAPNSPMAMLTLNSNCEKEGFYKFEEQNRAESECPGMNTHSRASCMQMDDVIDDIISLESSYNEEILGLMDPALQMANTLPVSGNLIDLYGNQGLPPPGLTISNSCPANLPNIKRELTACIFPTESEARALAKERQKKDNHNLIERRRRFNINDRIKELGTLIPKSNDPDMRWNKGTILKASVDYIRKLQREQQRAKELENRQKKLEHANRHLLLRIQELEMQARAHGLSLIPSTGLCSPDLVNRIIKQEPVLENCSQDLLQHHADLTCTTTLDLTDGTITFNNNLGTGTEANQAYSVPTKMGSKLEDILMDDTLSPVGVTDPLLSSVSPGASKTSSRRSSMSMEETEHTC

[16] = HEK-293T viability loss after treatment – luminescence, T-cell screen hits, cytotoxicity control for TCR NF-kB inhibitor project, dose response (AID 489026); type: functional, cell-based;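 further: cells exposed to compound about 14 hours before the viability readout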
[17] = fluconazole-exposed Candida albicans growth modulators – fluorescence, retest, confirmation (AID 2467); type: functional, cell-based
[18] = NIH-3T3 fibroblast cytotoxicity, dose response, cytotoxicity control, cell-based, fluorescence, Alamar Blue, secondary assay (AID 2327); type: functional;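 further: NIH-3T3 mouse fibroblasts cultured with fluconazole at 8 µg/mL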
[19] = alpha-synuclein stem-loop luciferase translation blockers – H4 neuroglioma cells, luminescence, confirmation (AID 1988); type: functional, cell-based
[20] = Luminescence Cell-Based Dose Response HTS to Identify Inhibitors of 5'UTR Stem-Loop Driven Prion Protein mRNA Translation in H4 Neuroglioblastoma Cells. [Related pubchem assays: 1827 (Project Summary), 1813 (Primary HTS)]; type: functional
[21] = luciferase reporter signal suppression in cells – H4 neuroglioma cells, luminescence, dose response (AID 1990); type: functional, cell-based

T2 sequence (P41145 whole entry): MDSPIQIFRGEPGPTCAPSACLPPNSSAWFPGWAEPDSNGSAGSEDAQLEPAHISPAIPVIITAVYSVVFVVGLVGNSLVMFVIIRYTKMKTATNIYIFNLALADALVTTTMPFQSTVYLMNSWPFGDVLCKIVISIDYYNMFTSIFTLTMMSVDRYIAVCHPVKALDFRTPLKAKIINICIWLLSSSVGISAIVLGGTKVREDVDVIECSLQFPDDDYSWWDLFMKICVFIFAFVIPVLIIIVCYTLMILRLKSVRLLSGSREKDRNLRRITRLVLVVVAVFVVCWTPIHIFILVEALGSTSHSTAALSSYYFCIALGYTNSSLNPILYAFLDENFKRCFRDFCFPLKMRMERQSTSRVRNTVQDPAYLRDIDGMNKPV
T1 sequence (P41143 whole entry): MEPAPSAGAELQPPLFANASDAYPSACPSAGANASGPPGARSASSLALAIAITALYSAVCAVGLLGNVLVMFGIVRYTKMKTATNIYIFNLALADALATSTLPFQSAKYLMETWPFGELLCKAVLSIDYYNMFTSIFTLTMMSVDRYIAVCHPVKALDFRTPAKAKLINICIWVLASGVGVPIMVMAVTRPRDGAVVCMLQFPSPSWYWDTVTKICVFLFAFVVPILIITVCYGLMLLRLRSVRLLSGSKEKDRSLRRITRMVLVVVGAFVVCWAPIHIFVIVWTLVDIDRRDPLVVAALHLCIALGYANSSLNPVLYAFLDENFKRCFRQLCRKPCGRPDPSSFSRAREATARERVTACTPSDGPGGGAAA

COc1ccc(S(=O)(=O)NCc2ccc(C(=O)N3CCN(Cc4ccccc4)CC3)cc2)cc1
EC50 [1]: > 32 µM (inactive) | IC50 [2]: > 32 µM (inactive) | EC50 [3]: > 32 µM (inactive) | IC50 [4]: > 10 µM (inactive) | IC50 [5]: > 32 µM (inactive) | IC50 (Mu-type opioid receptor [6]): > 32 µM (inactive) | EC50 (Mu-type opioid receptor [7]): > 32 µM (inactive)

O=[N+]([O-])c1ccccc1S(=O)(=O)N1CCCCC1
IC50 [8]: > 100 µM (not active) | IC50 [9]: > 100 µM (inactive)

COc1cccc(/C=C/C(=O)OCC(=O)NC(=O)NC2CCCC2)c1
AC50 (Keap1/Nrf2): > 52 µM (inactive)

O=[N+]([O-])c1ccc(/C=N/n2c(CO)nc3ccccc32)s1
EC50 [10]: 0.568 µM (active) | CC50 [11]: > 20 µM (active) | IC50 (cells): 1.51 µM (active) | CC50 [12]: 14.7 µM (active) | EC50 [13]: 42 µM (active) | AC50 (Escherichia coli): 121 µM (active) | AC50 (INS1): 4.91 µM (active) | CC50 [14]: 32.4 µM (active) | AC50 [15]: 1.97 µM (active)

CCCCCCCCCCn1ccc(=N)cc1
IC50 [16]: > 80 µM (inactive) | CC50 [11]: 7.25 µM (active) | CC50 [12]: 11.4 µM (active) | EC50 [17]: 0.055 µM (active) | EC50 [18]: 22.5 µM (active) | AC50 (INS1): 0.471 µM (active) | CC50 [14]: 1.57 µM (active) | EC50 [19]: 8.93 µM (active) | EC50 [20]: 8.51 µM (active) | EC50 [21]: 10.3 µM (active)
